Experimental data taken from patent US5041567A, “Antibacterial monic acid derivatives” (Beecham Group plc, priority 1982, dated 1991).
Converted amounts (≈) assume the structure as drawn. Read-outs that look alike come from different tables or passages of the source.

Key:
M. suipneumoniae NB12 = assay: MIC against mycoplasma in vitro; assay type: cell-based
M. suipneumoniae Str. 11 = assay: MIC against mycoplasma in vitro; assay type: cell-based
M. suipneumoniae UCD 1 = assay: MIC against mycoplasma in vitro; assay type: cell-based
M. bovis NCTC 10131 = assay: microbe, parasite or virus in culture; assay type: cell-based
[1] = system: M. bovigenitalium ATCC 14173; assay: MIC against mycoplasma in vitro; assay type: cell-based
M. gallisepticum S6 = assay: MIC against mycoplasma in vitro; assay type: cell-based; conditions: M. gallisepticum S6, 6 days, 37° C.
E. coli NCTC 10418 [2] = assay: MIC against human bacteria in vitro; assay type: cell-based; conditions: E. coli NCTC 10418, agar with 5% chocolated horse blood, 18 hours, 37° C.
[3] = system: Ps. aeruginosa NCTC 10662; assay: MIC against human bacteria in vitro; assay type: cell-based; conditions: Ps. aeruginosa NCTC 10662, 5% chocolated horse blood agar, 18 hours
[4] = system: Haemophilus influenzae Wy21; assay: MIC against human bacteria in vitro; assay type: cell-based
[5] = system: Corynebacterium xerosis 9755; assay: MIC against human bacteria in vitro; assay type: cell-based; conditions: Corynebacterium xerosis 9755, 5% chocolated horse blood agar, 18 hours
Strep. agalactiae 2788-B = assay: MIC against human bacteria in vitro; assay type: cell-based; conditions: Strep. agalactiae 2788-B, 5% chocolated horse blood agar, 18 hours
E. coli NCTC 10418 [6] = assay: MIC against veterinary bacteria in vitro
Protocol: (§1) The activity of the compounds of the Examples against various veterinarily important bacteria, was assayed in vitro using two-fold serial dilutions in Diagnostic Sensitivity Test Agar inoculated with 10^4 organisms.

S. dublin S7 = assay: MIC against veterinary bacteria in vitro
Protocol: as §1

Bord. bronchiseptica B09 = assay: MIC against veterinary bacteria in vitro
Protocol: as §1

Past. multocida PA1 = assay: MIC against veterinary bacteria in vitro
Protocol: as §1

Past. haemolytica PA5 = assay: MIC against veterinary bacteria in vitro
Protocol: as §1

[7] = system: Erysipelothrix rhusiopathiae NCTC 8163; assay: MIC against veterinary bacteria in vitro
Protocol: as §1

[8] = system: Corynebacterium pyogenes CY1; assay: MIC against veterinary bacteria in vitro
Protocol: as §1

Staph. aureus Oxford = assay: MIC against veterinary bacteria in vitro
Protocol: as §1

Strep. dysgalactiae SPD1 = assay: MIC against veterinary bacteria in vitro
Protocol: as §1

Strep. agalactiae SPA1 = assay: MIC against veterinary bacteria in vitro
Protocol: as §1

[9] = 144 h, M. bovigenitalium ATCC 14173, 6 days, 37° C., read-out: MIC
[10] = Mycoplasmoides gallisepticum, 144 h, read-out: MIC
[11] = Escherichia coli, NCTC10418, read-out: MIC
[12] = Pseudomonas aeruginosa, NCTC10662, read-out: MIC
[13] = Haemophilus influenzae Wy21, 5% chocolated horse blood agar, 18 hours, read-out: MIC
[14] = Streptococcus agalactiae, read-out: MIC
[15] = Escherichia coli, NCTC10418, 18 h
[16] = Bordetella bronchiseptica, B09, 18 h
[17] = Mannheimia haemolytica, PA5, 18 h
[18] = Erysipelothrix rhusiopathiae, NCTC8163, 18 h
[19] = Streptococcus dysgalactiae, SPD1, 18 h
[20] = Mesomycoplasma hyopneumoniae, NB12, 144 h
[21] = Mesomycoplasma hyopneumoniae, STR.11, 144 h
[22] = Mesomycoplasma hyopneumoniae, UCD1, 144 h
[23] = Streptococcus agalactiae, SPA1, 18 h

CC(=Cc1cc(C)no1)CC1OCC(CC2OC2C(C)C(C)O)C(O)C1O (stereo not drawn) [Example 30, 3-Methyl-5-(1-normon-2-yl) isoxazole A]
MIC (M. suipneumoniae NB12; M. suipneumoniae NB12, Friis broth, 0.9% agarose, 6 days, 37° C.): 5.0 µg/mL (≈ 13.1 µM)
MIC (M. suipneumoniae Str. 11; M. suipneumoniae Str. 11, 6 days, 37° C.): 2.5 µg/mL (≈ 6.55 µM)
MIC (M. suipneumoniae UCD 1; M. suipneumoniae UCD 1, 6 days, 37° C.): 2.5 µg/mL (≈ 6.55 µM)
MIC (M. bovis NCTC 10131; M. bovis NCTC 10131, 6 days, 37° C.): 0.25 µg/mL (≈ 0.655 µM)
MIC ([1]; M. bovigenitalium ATCC 14173, 6 days, 37° C.): 0.25 µg/mL (≈ 0.655 µM)
MIC (M. gallisepticum S6): > 10 µg/mL
MIC (E. coli NCTC 10418 [2]): > 128 µg/mL
MIC [3]: > 128 µg/mL
MIC ([4]; Haemophilus influenzae Wy21, 5% chocolated horse blood agar, 18 hours): < 0.06 µg/mL
MIC [5]: > 128 µg/mL
MIC (Strep. agalactiae 2788-B): 128 µg/mL (≈ 336 µM)
MIC (E. coli NCTC 10418 [6]; E. coli NCTC 10418, Diagnostic Sensitivity Test Agar, 18 hours, 37° C.): > 80 µg/mL
MIC (S. dublin S7; S. dublin S7, Diagnostic Sensitivity Test Agar, 18 hours): > 80 µg/mL
MIC (Bord. bronchiseptica B09; Bord. bronchiseptica B09, Diagnostic Sensitivity Test Agar, 18 hours): > 80 µg/mL
MIC (Past. multocida PA1; Past. multocida PA1, Diagnostic Sensitivity Test Agar, 18 hours): 2.5 µg/mL (≈ 6.55 µM)
MIC (Past. haemolytica PA5; Past. haemolytica PA5, Diagnostic Sensitivity Test Agar, 18 hours): 10 µg/mL (≈ 26.2 µM)
MIC ([7]; Erysipelothrix rhusiopathiae NCTC 8163, Diagnostic Sensitivity Test Agar, 18 hours): > 80 µg/mL
MIC ([8]; Corynebacterium pyogenes CY1, Diagnostic Sensitivity Test Agar, 18 hours): > 80 µg/mL
MIC (Staph. aureus Oxford; Staph. aureus Oxford, Diagnostic Sensitivity Test Agar, 18 hours): 2.5 µg/mL (≈ 6.55 µM)
MIC (Strep. dysgalactiae SPD1; Strep. dysgalactiae SPD1, Diagnostic Sensitivity Test Agar, 18 hours): 40 µg/mL (≈ 105 µM)
MIC (Strep. agalactiae SPA1; Strep. agalactiae SPA1, Diagnostic Sensitivity Test Agar, 18 hours): 40 µg/mL (≈ 105 µM)

C/C(=C\c1cc(-c2ccccc2)no1)C[C@@H]1OC[C@H](C[C@@H]2O[C@H]2[C@@H](C)[C@H](C)O)[C@@H](O)[C@H]1O [Example 31, 5-(1-Normon-2-yl)-3-phenylisoxazole A]
MIC (M. suipneumoniae NB12; Mesomycoplasma hyopneumoniae, 144 h, M. suipneumoniae NB12, Friis broth, 0.9% agarose, 6 days, 37° C., read-out: MIC): 10 µg/mL (≈ 22.5 µM)
MIC (M. suipneumoniae Str. 11; Mesomycoplasma hyopneumoniae, 144 h, M. suipneumoniae Str. 11, 6 days, 37° C., read-out: MIC): 5 µg/mL (≈ 11.3 µM)
MIC (M. suipneumoniae UCD 1; Mesomycoplasma hyopneumoniae, UCD1, 144 h, M. suipneumoniae UCD 1, 6 days, 37° C., read-out: MIC): 10 µg/mL (≈ 22.5 µM)
MIC (M. bovis NCTC 10131; NCTC10131, 144 h): 1 µg/mL (≈ 2.25 µM)
MIC [1, 9]: 5 µg/mL (≈ 11.3 µM)
MIC (M. gallisepticum S6; [10]): > 10 µg/mL
MIC (E. coli NCTC 10418 [2]; [11]): > 128 µg/mL
MIC [3, 12]: > 128 µg/mL
MIC [4, 13]: 16 µg/mL (≈ 36.1 µM)
MIC ([5]; read-out: MIC): > 128 µg/mL
MIC (Strep. agalactiae 2788-B; [14]): > 128 µg/mL
MIC (E. coli NCTC 10418 [6]; [15]): > 80 µg/mL
MIC (S. dublin S7; Salmonella enterica, S7, 18 h): > 80 µg/mL
MIC (Bord. bronchiseptica B09; [16]): 80 µg/mL (≈ 180 µM)
MIC (Past. haemolytica PA5; [17]): > 80 µg/mL
MIC [7, 18]: > 80 µg/mL
MIC ([8]; CY1, 18 h): > 80 µg/mL
MIC (Staph. aureus Oxford; Staphylococcus aureus, 18 h): 20 µg/mL (≈ 45.1 µM)
MIC (Strep. dysgalactiae SPD1; [19]): > 80 µg/mL

C/C(=C\c1cc(C)on1)C[C@@H]1OC[C@H](C[C@@H]2O[C@H]2[C@@H](C)[C@H](C)O)[C@@H](O)[C@H]1O [Example 33, 5-Methyl-3-(1-normon-2-yl) isoxazole A]
MIC (M. suipneumoniae NB12; [20]): 2.5 µg/mL (≈ 6.55 µM)
MIC (M. suipneumoniae Str. 11; [21]): 1 µg/mL (≈ 2.62 µM)
MIC (M. suipneumoniae UCD 1; [22]): 1 µg/mL (≈ 2.62 µM)
MIC (M. bovis NCTC 10131; NCTC10131, 144 h): 0.25 µg/mL (≈ 0.655 µM)
MIC [1, 9]: 0.5 µg/mL (≈ 1.31 µM)
MIC (M. gallisepticum S6; [10]): > 10 µg/mL
MIC (E. coli NCTC 10418 [2]; [11]): > 128 µg/mL
MIC [3, 12]: > 128 µg/mL
MIC ([4]; Haemophilus influenzae, WY21, 18 h): 0.25 µg/mL (≈ 0.655 µM)
MIC ([5]; read-out: MIC): > 128 µg/mL
MIC (Strep. agalactiae 2788-B; [14]): 64 µg/mL (≈ 168 µM)
MIC (E. coli NCTC 10418 [6]; [15]): > 80 µg/mL
MIC (S. dublin S7; Salmonella enterica, S7, 18 h): > 80 µg/mL
MIC (Bord. bronchiseptica B09; [16]): > 80 µg/mL
MIC (Past. multocida PA1; Pasteurella multocida, PA1, 18 h): 1.3 µg/mL (≈ 3.41 µM)
MIC (Past. haemolytica PA5; [17]): 20 µg/mL (≈ 52.4 µM)
MIC [7, 18]: > 80 µg/mL
MIC ([8]; CY1, 18 h): > 80 µg/mL
MIC (Staph. aureus Oxford; Staphylococcus aureus, 18 h): 2.5 µg/mL (≈ 6.55 µM)
MIC (Strep. dysgalactiae SPD1; [19]): 5 µg/mL (≈ 13.1 µM)
MIC (Strep. agalactiae SPA1; [23]): 10 µg/mL (≈ 26.2 µM)

C/C(=C\c1cc(-c2ccccc2)on1)C[C@@H]1OC[C@H](C[C@@H]2O[C@H]2[C@@H](C)[C@H](C)O)[C@@H](O)[C@H]1O [Example 34, 3-(1-Normon-2-yl)-5-phenylisoxazole A]
MIC (M. suipneumoniae NB12; [20]): 2.5 µg/mL (≈ 5.64 µM)
MIC (M. suipneumoniae Str. 11; [21]): 1 µg/mL (≈ 2.25 µM)
MIC (M. suipneumoniae UCD 1; [22]): 2.5 µg/mL (≈ 5.64 µM)
MIC (M. bovis NCTC 10131; NCTC10131, 144 h): 0.25 µg/mL (≈ 0.564 µM)
MIC ([1]; 144 h): 1 µg/mL (≈ 2.25 µM)
MIC (M. gallisepticum S6; [10]): > 10 µg/mL
MIC (E. coli NCTC 10418 [2]; [11]): > 128 µg/mL
MIC [3, 12]: > 128 µg/mL
MIC [4, 13]: 2 µg/mL (≈ 4.51 µM)
MIC ([5]; read-out: MIC): > 128 µg/mL
MIC (Strep. agalactiae 2788-B; [14]): 64 µg/mL (≈ 144 µM)
MIC (E. coli NCTC 10418 [6]; [15]): > 80 µg/mL
MIC (S. dublin S7; Salmonella enterica, S7, 18 h): > 80 µg/mL
MIC (Bord. bronchiseptica B09; [16]): 40 µg/mL (≈ 90.2 µM)
MIC (Past. haemolytica PA5; [17]): > 80 µg/mL
MIC [7, 18]: > 80 µg/mL
MIC ([8]; CY1, 18 h): > 80 µg/mL
MIC (Staph. aureus Oxford; Staphylococcus aureus, 18 h): 5 µg/mL (≈ 11.3 µM)
MIC (Strep. dysgalactiae SPD1; [19]): 10 µg/mL (≈ 22.5 µM)
MIC (Strep. agalactiae SPA1; [23]): 40 µg/mL (≈ 90.2 µM)
